The values that follow come from patent US20140242093A1, “METHODS AND COMPOSITIONS FOR MODULATING THE INNATE IMMUNE RESPONSE AND/OR MYOGENESIS IN A MAMMALIAN SUBJECT” (FRED HUTCHINSON CANCER RESEARCH CENTER, priority 2011, published 2014).

Experiment [1] relates to cultured control skeletal muscle. Kind of experiment: RT-PCR validation of microarray gene targets. In kind it is cell-based, human. Particulars: FIG. 1. As for the experimental part:
RNA was collected from cultured control skeletal muscle either transduced with a DUX4-fl expressing lentivirus (+) or not transduced (−). RPL13A was used as an internal standard. Total RNA was treated with DNase using TURBO DNA-free kit (Ambion) according to manufacturer's protocol. One μg of DNase-treated RNA was reverse transcribed to first strand cDNA with SuperScript III and anchored oligo dT (Invitrogen) at 52° C. for 1 h. Residual RNA was digested with RNase H at 37° C. for 20 min. cDNA was used in various PCR and real-time PCR reactions with primers listed below.
The primers shown below were designed to span exon-exon junctions where possible. Primers from select genes were also used in real-time PCR reactions to examine endogenous expression of targets in FSHD versus control samples described separately.

For experiment [2], the system named is Cultured human muscle cells (54-1). Kind of experiment: Conditioned media from lenti-DUX4-fl cells on lenti-GFP transduced cells, RT-PCR of IFIH1 and DEFB103A/B. In kind it is cell-based. As for the experimental part:
It was determined that DEFB103A (SEQ ID NO:49) and DEFB103B (SEQ ID NO:107), each encoding the polypeptide DEFB103A/B set forth as SEQ ID NO:178, are both activated by lenti-DUX4-fl and not by lenti-DUX4-s or lenti-GFP. These represent transcripts from a duplicated beta-defensin 3 gene, which can function as a suppressor of inflammation. As a secreted protein, DEFB103A/B (SEQ ID NO:178) has the potential to suppress the innate immune response in cells infected with lenti-GFP. As an initial step toward testing this, the inventors transduced cells with lenti-DUX4-fl or nothing for 12 hrs, washed extensively and replaced the culture media, then after an additional 12 hrs transferred the conditioned media to cells infected 24 hrs earlier with lenti-GFP.
Cultured human muscle cells (54-1) were transduced with nothing (first lane panels A and B), lenti-DUX4-fl @ approximately MOI=10 (lane 2), lenti-DUX4-fl MOI ˜1 (lane 3), lenti-GFP MOI ˜10 (lane 4), lenti-GFP transduced cells exposed to conditioned media from lane 2 cells (lane 5), lenti-GFP transduced cells exposed to conditioned media from lane 3 cells (lane 6), lenti-GFP transduced cells exposed to media from lane 5 cells that was filtered through a 35 kD cut-off filter. The conditioned media from the lenti-DUX4 transduced cells suppresses the IFIH1 induction by lenti-GFP (Panel A).

On to “DUX4-fl: full-length DUX4 protein (SEQ ID NO:110), expressed from lentiviral or pCS2 vectors or in vitro translated”, for which the “number of DUX4-fl regulated genes with differential expression validated by RT-PCR” value in experiment [1] was found to be 15 genes. For the same substance, the “expression of DEFB103A/B” value in experiment [2] (RT-PCR) is recorded as “induces expression of DEFB103A/B”. In addition, the “activation of IFIH1 by the construct” value in experiment [2] (qRT-PCR, no conditioned medium) was “did not”.
